Where “and” joins values, the source holds several entries; their conditions need not be identical. Identical values can stand only once.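 Cultured in 96-well plates, cells were exposed to test compound for 48 hours across five concentrations. Abbreviation: GI50, concentration required for 50% inhibition of growth. Definition used: TGI = concentration required for complete inhibition of growth.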
Assays:
Assay in all cases: inhibition of tumour cell growth, NCI panel, 48 h
COLO 205 colon = test system: COLO 205 colon
SK-MEL-2 melanoma = test system: SK-MEL-2 melanoma
SN12C renal = test system: SN12C renal
HCC-2998 colon = test system: HCC-2998 colon
OVCAR-4 ovarian = test system: OVCAR-4 ovarian
HCT-116 colon = test system: HCT-116 colon
MCF7 breast = test system: MCF7 breast
DMS 114 small cell lung = test system: DMS 114 small cell lung
786-0 renal = test system: 786-0 renal
M19-MEL melanoma = test system: M19-MEL melanoma

CCC(C)(C)C(=O)O[C@H]1C[C@@H](C)C=C2C=C[C@H](C)[C@H](CC[C@@H]3C[C@@H](O)CC(=O)O3)[C@H]21
GI50 (COLO 205 colon): 4.14 µM | TGI (COLO 205 colon): 14.7 µM and 23.6 µM | GI50 (SK-MEL-2 melanoma): 0.765 µM | TGI (SK-MEL-2 melanoma): 5.92 µM and 1.81 µM | GI50 (SN12C renal): 0.949 µM | TGI (SN12C renal): 16.5 µM and > 30 µM | GI50 (HCC-2998 colon): 7.89 µM | TGI (HCC-2998 colon): 22.1 µM and > 30 µM | GI50 (OVCAR-4 ovarian): 6.1 µM | TGI (OVCAR-4 ovarian): 20.5 µM and > 30 µM | GI50 (HCT-116 colon): 1.25 µM | TGI (HCT-116 colon): 5.43 µM and 6.98 µM | GI50 (MCF7 breast): 12.2 µM | TGI (MCF7 breast): 26.7 µM | TGI (DMS 114 small cell lung): > 30 µM | GI50 (786-0 renal): 3.13 µM | TGI (786-0 renal): 11.2 µM and > 30 µM | TGI (M19-MEL melanoma): > 30 µM

COC(=O)NC1C(C)OC(OC2C/C=C(/C)C3C=CC4C(OC5CC(OC6CC(O)C(OC7CC(O)C(OC)C(C)O7)C(C)O6)C(O)C(C)O5)C(C)CC(C)C4C3(C)/C(O)=C3\C(=O)OC4(CC(C)C(CO)=CC4/C=C\2C)C3=O)CC1(C)[N+](=O)[O-] (centres undefined)
GI50 (COLO 205 colon): 9.29 µM | TGI (COLO 205 colon): 16.3 µM and 13 µM | GI50 (SK-MEL-2 melanoma): 9.66 µM | TGI (SK-MEL-2 melanoma): 17.4 µM and 29.6 µM | GI50 (SN12C renal): 9.65 µM | TGI (SN12C renal): 29.1 µM and 40 µM | TGI (HCC-2998 colon): 31.6 µM | TGI (OVCAR-4 ovarian): 11.8 µM | GI50 (HCT-116 colon): 8.04 µM | TGI (HCT-116 colon): 14.8 µM and 23.4 µM | GI50 (MCF7 breast): 11.8 µM | TGI (MCF7 breast): 44 µM and 13.3 µM | TGI (DMS 114 small cell lung): 11.5 µM | GI50 (786-0 renal): 16.8 µM | TGI (786-0 renal): 21.9 µM and 32.3 µM | TGI (M19-MEL melanoma): 13.1 µM

Cc1c(Cl)ccc2c1NC(=O)C2(O)C(C(=O)c1ccccc1)c1ccccc1 (centres undefined)
TGI (COLO 205 colon): > 100 µM | TGI (SK-MEL-2 melanoma): > 100 µM | TGI (SN12C renal): > 100 µM | TGI (HCC-2998 colon): > 100 µM | TGI (OVCAR-4 ovarian): 28.7 µM | TGI (HCT-116 colon): > 100 µM | TGI (DMS 114 small cell lung): 44.2 µM | TGI (786-0 renal): > 100 µM | TGI (M19-MEL melanoma): 30.6 µM

CCCCCCCCCCCCCC(=O)O[C@H]1CC[C@H](NC(=O)[C@H](OC)[C@H](O)[C@@H](O)[C@H](O)/C=C/C(C)C)C(=O)NC1
TGI (COLO 205 colon): 0.00374 µM and 0.0154 µM | TGI (SK-MEL-2 melanoma): 51.2 µM and 9.49 µM | TGI (SN12C renal): 10.8 µM and 18.6 µM | GI50 (OVCAR-4 ovarian): 0.00276 µM | TGI (OVCAR-4 ovarian): 29 µM and 31.3 µM | TGI (HCT-116 colon): 1.06 µM | GI50 (MCF7 breast): 0.00512 µM | TGI (MCF7 breast): 8.64 µM and 22.6 µM | GI50 (DMS 114 small cell lung): < 0.001 µM | TGI (786-0 renal): 0.928 µM | GI50 (M19-MEL melanoma): 0.0245 µM | TGI (M19-MEL melanoma): 8.23 µM

O=S(=O)(/C=C/c1ccc(Cl)cc1Cl)Cc1ccccc1CS(=O)(=O)/C=C/c1ccc(Cl)cc1Cl
TGI (COLO 205 colon): > 100 µM | TGI (SK-MEL-2 melanoma): > 100 µM | TGI (SN12C renal): > 100 µM | TGI (HCC-2998 colon): > 100 µM | TGI (OVCAR-4 ovarian): > 100 µM | TGI (HCT-116 colon): > 100 µM | TGI (DMS 114 small cell lung): > 100 µM | TGI (786-0 renal): > 100 µM | TGI (M19-MEL melanoma): > 100 µM

Source: PubChem BioAssay (NCI)
